Reference: patent publication US20080139664A1, “ANTI-GLYCATION AGENTS FOR PREVENTING AGE-, DIABETES-, AND SMOKING-RELATED COMPLICATIONS” (NATIONAL RESEARCH COUNCIL OF CANADA, priority 2001, published 2008)
pEC50, pIC50: −log10 of the molar value.

Tests used:
[1] = system: dopaminergic neurons; conditions: cited from earlier work
[2] = system: human eye; conditions: topical administration of up to 20%; cited from earlier work
[3] = system: bovine serum albumin (BSA); assay: Fluorescamine assay of free primary amino groups of BSA incubated with D-ribose; format: biochemical; conditions: free primary amino group on BSA after 5 days at 37° C.; agent at 16.8 times IC50; 64% without agent
[4] = system: bovine serum albumin (BSA); assay: SDS-PAGE assessment of BSA-BSA protein cross-links; format: biochemical; conditions: mixtures further incubated for 4 weeks; further: key: ++: strongly suppressed; +: suppressed; −: no suppression; *: moderate acceleration of the cross-linking
Experimental: Additionally, protein cross-links were semi-quantitatively assessed by SDS PAGE gel chromatography.
Protein-protein cross-links were characterized by SDS-PAGE. The incubation mixtures used for determination of the amino groups were further incubated for 4 weeks. An aliquot of the solution was applied to Pharmacia SDS FAST gel and the proteins were stained with Coomassie blue.

[5] = system: lysozyme; assay: ESI-MS of lysozyme glycoforms after incubation with D-ribose; conditions: 37° C., 5 days;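 further: lysozyme incubated with D-ribose, with or without anti-glycation agents, then separated by reversed-phase HPLC and analysed by electrospray mass spectrometry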
Experimental: The effect of anti-glycation agents on the accumulation of glycated forms (glycoforms) of protein was evaluated by using electrospray mass spectrometry (ESI-MS). As the molecular mass of BSA was too large to monitor the small mass changes of its glycoforms, lysozyme was incubated with D-ribose and anti-glycants. Lysozyme and its glycoforms were isolated by RP-HPLC and analyzed by mass spectrometry.
Samples of lysozyme (0.756 mM; 4.54 mM of Lys residues) and D-ribose (50 mM) were incubated in the presence and absence of the selected anti-glycation agents at 37° C. for 5 days and subjected to electrospray mass spectrometry (ESI-MS) in order to characterize the protein intermediates as well as carboxymethylated lysozyme. Prior to MS measurements, the proteins were isolated by reversed phase-HPLC and were semi-dried by freeze drying.

[6] = system: bovine serum albumin (BSA); assay: Maillard fluorescence-based assay of AGEs formation, IC50 determination (BSA + D-ribose); conditions: inhibition of Maillard fluorescence development; 0.075 mM BSA, 50 mM D-ribose, 37° C., 5 days

NC[C@H](O)c1ccc(O)c(O)c1 [noradrenaline]
pEC50 ([1]; read-out: EC50, reduction of oxidative stress related to glycation): ~6.52 | concentrations of intracellular reactive oxygen species ([1]; treatment with 1 μM): drastically reduced

CC(C)NCC(O)c1ccc(O)c(O)c1.Cl [D-isoproterenol hydrochloride]
effect on intra-ocular pressure [2]: did not lower intra-ocular pressure

N=C(N)NN [Aminoguanidine]
Unreacted amino group [3]: 68% | Suppression of BSA-BSA cross-links [4]: + | amount of (AP-H2O) glycoform of lysozyme ([5]; FIG. 2, in words): reduced | Peak area as % of total area of all glycoforms, 14,569 ([5]; lysozyme + 2D-ribose − 2H2O (14,569 Da)): 5.7% | Peak area as % of total area of all glycoforms, 14,551 ([5]; lysozyme + 2D-ribose − 3H2O (14,551 Da)): 1.2% | Peak area as % of total area of all glycoforms, 14,533 ([5]; lysozyme + 2D-ribose − 5H2O (14,533 Da)): 1.1% | Peak area as % of total area of all glycoforms, 14,515 ([5]; lysozyme + 2D-ribose − 6H2O (14,515 Da)): 0.7% | Peak area as % of total area of all glycoforms, 14,419 ([5]; lysozyme + D-ribose − 2H2O (14,419 Da)): 2.6% | Peak area as % of total area of all glycoforms, 14,401 ([5]; lysozyme + D-ribose − 3H2O (14,401 Da)): 2.1% | Peak area as % of total area of all glycoforms, 14,437 ([5]; lysozyme + D-ribose − H2O (14,437 Da)): 26.2% | Peak area as % of total area of all glycoforms, 14,496 ([5]; lysozyme + D-ribose − H2O with one carboxymethylated Lys residue (14,496 Da)): 1.4% | Peak area as % of total area of all glycoforms, 14,364 ([5]; lysozyme with one carboxymethylated Lys residue (14,364 Da)): 3.2% | Peak area as % of total area of all glycoforms, 14,305 ([5]; unmodified lysozyme (14,305 Da)): 54.5% | pIC50 [6]: 3.46
